The values that follow come from the NIST ThermoML archive (doi:10.1016/j.jct.2013.09.007).

For data set [1] the following is noted: 101.33 kPa, Liquid, Vibrating tube method.
Data set [2] can be described thus: activity coefficient (dimensionless); of the first substance listed, at infinite dilution; xn = mol fraction of the nth substance listed. Particulars: 101 kPa, Liquid, Chromatography, x1 = 0.

± gives the expanded uncertainty stated by the source.

For orientation: mass density means the mass of a sample divided by its volume. For `CCCC[n+]1cccc(C)c1.N#C[N-]C#N` [1-butyl-3-methylpyridinium dicyanamide], the mass density came out at 1040.66 ± 2.1 kg/m3 in data set [1] (308.15 K); 1034.63 ± 2.1 kg/m3 in data set [1] (318.15 K); 1028.66 ± 2.1 kg/m3 in data set [1] (328.15 K); 1022.75 ± 2.1 kg/m3 in data set [1] (338.15 K); 1016.77 ± 2 kg/m3 in data set [1] (348.15 K); 1010.8 ± 2 kg/m3 in data set [1] (358.15 K).
With `C1CCOC1` [tetrahydrofuran] + CCCC[n+]1cccc(C)c1.N#C[N-]C#N, the activity coefficient worked out at 1.38 ± 0.09 in data set [2] (308.15 K); 1.4 ± 0.09 in data set [2] (318.15 K); 1.43 ± 0.09 in data set [2] (328.15 K); 1.45 ± 0.1 in data set [2] (338.15 K); 1.47 ± 0.1 in data set [2] (348.15 K); 1.5 ± 0.1 in data set [2] (358.15 K). Also, the activity coefficient in data set [2] (368.15 K) worked out at 1.53 ± 0.1.
Take `c1ccsc1` [thiophene] + CCCC[n+]1cccc(C)c1.N#C[N-]C#N: the activity coefficient was found to be 0.822 ± 0.053 in data set [2] (308.15 K); 0.844 ± 0.054 in data set [2] (318.15 K); 0.868 ± 0.055 in data set [2] (328.15 K); 0.89 ± 0.057 in data set [2] (338.15 K); 0.911 ± 0.058 in data set [2] (348.15 K); 0.937 ± 0.059 in data set [2] (358.15 K). The activity coefficient in data set [2] (368.15 K) was found to be 0.955 ± 0.06.
Regarding `Cc1ccccc1` [toluene] + CCCC[n+]1cccc(C)c1.N#C[N-]C#N, the activity coefficient in data set [2] (328.15 K) was determined as 2.01 ± 0.14; in data set [2] (338.15 K), 2.05 ± 0.14; in data set [2] (348.15 K), 2.1 ± 0.14; in data set [2] (358.15 K), 2.15 ± 0.15; in data set [2] (368.15 K), 2.2 ± 0.15.
On to `O` [water] + CCCC[n+]1cccc(C)c1.N#C[N-]C#N, for which the activity coefficient in data set [2] (338.15 K) came out at 0.294 ± 0.031; in data set [2] (348.15 K), 0.302 ± 0.031; in data set [2] (358.15 K), 0.307 ± 0.031; in data set [2] (368.15 K) it was 0.314 ± 0.031.
